What was measured:
[1] = system: HEK293 clonal cell line overexpressing APOL1 G1; test: APOL1 G1 HEK293 cell rescue assay (Example B3); format: cell-based; details: Homo sapiens, HEK293, HEK293 clonal line overexpressing APOL1 G1; geometric mean of at least 2 runs; † = single run; ¥ = concentration at 50% rescue estimated (no sigmoidal curve)
Procedure: Compounds were also assayed in a HEK293 clonal cell line overexpressing APOL1 G1 by a method similar to that shown in Example B2 above.
Unless otherwise specified, EC50 values are reported as the geometric mean of at least 2 assay runs on separate days. Each run represents the average of a technical replicate, where each compound was assayed twice in the same plate. A superscript † symbol indicates a value from the average of a technical replicate from a single assay run, where each compound was assayed twice in the same plate. A ¥ symbol represents compound concentration at 50% rescue estimated due to lack of sigmoidal curve preventing curve fitting. Compounds in Table 41 are referred to by the corresponding Compound Number in Table 1, which is also referred to in the synthetic examples. When one or more of the numbered compounds are identified by stereochemistry (for example, (R)- or (S)-), the specific stereoisomer for which data is provided in Table 41 may be identified by the elution order of such compound as described in the synthetic examples. Absolute stereochemistry of such compounds may be identified by methods known in the art. For Table 41 below, n/a represents “not available”.
Rescue EC50 values reported in Table 41 below represent the half-maximal effective concentration for reversal of cell death caused by overexpression of APOL1.

[2] = system: HEK293 cells overexpressing APOL1 G2; test: APOL1 G2 HEK293 cell rescue assay (reversal of cell death caused by overexpression of APOL1); format: cell-based; details: Homo sapiens, HEK293, HEK293 overexpressing APOL1 G2; geometric mean of at least 2 assay runs; † = single assay run
Procedure: Unless otherwise specified, EC50 values are reported as the geometric mean of at least 2 assay runs on separate days. Each run represents the average of a technical replicate, where each compound was assayed twice in the same plate. A superscript t symbol indicates a value from the average of a technical replicate from a single assay run, where each compound was assayed twice in the same plate. Compounds in Table 40 are referred to by the corresponding Compound Number in Table 1, which is also referred to in the synthetic examples. When one or more of the numbered compounds are identified by stereochemistry (for example, (R)- or (S)-), the specific stereoisomer for which data is provided in Table 40 may be identified by the elution order of such compound as described in the synthetic examples. Absolute stereochemistry of such compounds may be identified by methods known in the art. For Table 40 below, n/a represents “not available”.
Rescue EC50 values reported in Table 40 below represent the half-maximal effective concentration for reversal of cell death caused by overexpression of APOL1.

Row | SMILES | EC50 [1] [nM] | EC50 [2] [nM]
1 | CS(=O)(=O)C1(c2ccc(OCCN3CCC4(CC3)C(=O)Nc3ccc(C(F)F)cc34)cc2)CC(O)C1 (centres unmarked) [Compound 280, 5-(difluoromethyl)-1′-{2-[4-(3-hydroxy-1-methanesulfonylcyclobutyl)phenoxy]ethyl}-1,2-dihydrospiro[indole-3,4′-piperidin]-2-one] | 235 | 80
2 | O=C1CCc2cc(OCCN3CCC4(CC3)C(=O)Nc3ccc(Cl)cc34)cnc2N1 [Compound 293, 5-chloro-1′-{2-[(7-oxo-5,6,7,8-tetrahydro-1,8-naphthyridin-3-yl)oxy]ethyl}-1,2-dihydrospiro[indole-3,4′-piperidin]-2-one] | 193 | 294
3 | CC(O)c1ncc(OCCN2CCC3(CC2)C(=O)Nc2ccc(C(F)F)cc23)cc1C(F)(F)F (centres unmarked) [Compound 296, 5-(difluoromethyl)-1′-(2-{[6-(1-hydroxyethyl)-5-(trifluoromethyl)pyridin-3-yl]oxy}ethyl)-1,2-dihydrospiro[indole-3,4′-piperidin]-2-one] | 159 | 77.3
4 | O=C1CCc2cc(OCCN3CCC4(CC3)C(=O)Nc3ccc(Cl)cc34)cnc2N1C1CC(O)(C2CC2)C1 (centres unmarked) [Compound 299, 5-chloro-1′-(2-{[8-(3-cyclopropyl-3-hydroxycyclobutyl)-7-oxo-5,6,7,8-tetrahydro-1,8-naphthyridin-3-yl]oxy}ethyl)-1,2-dihydrospiro[indole-3,4′-piperidin]-2-one] | 63.6 | 21.3
5 | CCC1(O)CC(N2C(=O)CCc3cc(OCCN4CCC5(CC4)C(=O)Nc4ccc(Cl)cc45)cnc32)C1 (centres unmarked) [Compound 318] | 65.9 | 23.2
6 | O=C1Nc2ccc(Cl)cc2C12CCN(CCOc1cnc(C(O)CO)nc1)CC2 (centres unmarked) [Compound 330, 5-chloro-1′-(2-{[2-(1,2-dihydroxyethyl)pyrimidin-5-yl]oxy}ethyl)-1,2-dihydrospiro[indole-3,4′-piperidin]-2-one] | ~1500 | 668
7 | CC(O)c1ncc(OCCN2CCC3(CC2)C(=O)Nc2ccc(C#N)cc23)cc1C(F)(F)F (centres unmarked) [Compound 338, 1′-(2-{[6-(1-hydroxyethyl)-5-(trifluoromethyl)pyridin-3-yl]oxy}ethyl)-2-oxo-1,2-dihydrospiro[indole-3,4′-piperidine]-5-carbonitrile] | 213 | 99.4
8 | CP(C)(=O)C1(c2ncc(OCCN3CCC4(CC3)C(=O)Nc3ccc(Cl)cc34)cn2)CC1 [Compound 344, 5-chloro-1′-[2-({2-[1-(dimethylphosphoryl)cyclopropyl]pyrimidin-5-yl}oxy)ethyl]-1,2-dihydrospiro[indole-3,4′-piperidin]-2-one] | 254 | 194
9 | C[C@]1(O)C[C@@H](n2cnc3cc(OCCN4CCC5(CC4)C(=O)Nc4ccc(Cl)cc45)ccc32)C1 [Compound 351, 5-chloro-1′-[2-({1-[(cis)-3-hydroxy-3-methylcyclobutyl]-1H-1,3-benzodiazol-5-yl}oxy)ethyl]-1,2-dihydrospiro[indole-3,4′-piperidin]-2-one] | 299 | 166
10 | C[C@]1(O)C[C@@H](N2C(=O)CCc3cc(OCCN4CCC5(CC4)C(=O)Nc4ccc(Cl)cc45)cc(C(F)(F)F)c32)C1 [Compound 353, 5-chloro-1′-[2-({2-oxo-1-[(cis)-3-hydroxy-3-methylcyclobutyl]-8-(trifluoromethyl)-1,2,3,4-tetrahydroquinolin-6-yl}oxy)ethyl]-1,2-dihydrospiro[indole-3,4′-piperidin]-2-one] | 34.5 | 12.3
11 | C[C@]1(O)C[C@@H](N2C(=O)CCc3cc(OCCN4CCC5(CC4)C(=O)Nc4ccc(C#N)cc45)cc(C(F)(F)F)c32)C1 [Compound 354, 2-oxo-1′-[2-({2-oxo-1-[(cis)-3-hydroxy-3-methylcyclobutyl]-8-(trifluoromethyl)-1,2,3,4-tetrahydroquinolin-6-yl}oxy)ethyl]-1,2-dihydrospiro[indole-3,4′-piperidine]-5-carbonitrile] | 40.1 | 14.6
12 | CC1(O)CC(c2ncc(OCCN3CCC4(CC3)C(=O)Nc3ccc(Cl)cc34)cn2)C1 (centres unmarked) [Compound 373, 5-chloro-1′-(2-{[2-(3-hydroxy-3-methylcyclobutyl)pyrimidin-5-yl]oxy}ethyl)-1,2-dihydrospiro[indole-3,4′-piperidin]-2-one] | 133 | 53.4
13 | C[C@]1(O)C[C@@H](n2c(=O)[nH]c3cc(OCCN4CCC5(CC4)C(=O)Nc4ccc(Cl)cc45)cnc32)C1 [Compound 374, 5-chloro-1′-[2-({2-oxo-3-[(cis)-3-hydroxy-3-methylcyclobutyl]-1H,2H,3H-imidazo[4,5-b]pyridin-6-yl}oxy)ethyl]-1,2-dihydrospiro[indole-3,4′-piperidin]-2-one] | 216 | 101
14 | CC(O)c1ncc(OCCN2CCC3(CC2)C(=O)Nc2ccc(Cl)cc23)cc1C(F)(F)F (centres unmarked) [Compound 399, 5-chloro-1′-(2-{[6-(1-hydroxyethyl)-5-(trifluoromethyl)pyridin-3-yl]oxy}ethyl)-1,2-dihydrospiro[indole-3,4′-piperidin]-2-one] | 117 | 49.8
15 | CS(=O)(=O)C1(c2ncc(OCCN3CCC4(CC3)C(=O)Nc3c(Cl)cc(Cl)cc34)cn2)CC1 [Compound 400, 5,7-dichloro-1′-(2-{[2-(1-methanesulfonylcyclopropyl)pyrimidin-5-yl]oxy}ethyl)-1,2-dihydrospiro[indole-3,4′-piperidin]-2-one] | 678 | 224
16 | C[C@]1(O)C[C@@H](N2C(=O)CCc3cc(OCCN4CCC5(CC4)C(=O)Nc4c(Cl)cc(Cl)cc45)cnc32)C1 [Compound 409, 5,7-dichloro-1′-[2-({7-oxo-8-[(cis)-3-hydroxy-3-methylcyclobutyl]-5,6,7,8-tetrahydro-1,8-naphthyridin-3-yl}oxy)ethyl]-1,2-dihydrospiro[indole-3,4′-piperidin]-2-one] | 136 | 70.2
17 | [2H]C([2H])([2H])N1C(=O)C2(CCN(CCOc3cnc(C4(S(C)(=O)=O)COC4)nc3)CC2)c2cc(Cl)ccc21 [Compound 422, 5-chloro-1′-(2-{[2-(3-methanesulfonyloxetan-3-yl)pyrimidin-5-yl]oxy}ethyl)-1-(^2H3)methyl-1,2-dihydrospiro[indole-3,4′-piperidin]-2-one] | 165 | 63.5
18 | CC1(O)CC(n2ncc3cc(OCCN4CCC5(CC4)C(=O)Nc4ccc(C#N)cc45)cnc32)C1 (centres unmarked) [Compound 436, 1′-(2-{[1-(3-hydroxy-3-methylcyclobutyl)-1H-pyrazolo[3,4-b]pyridin-5-yl]oxy}ethyl)-2-oxo-1,2-dihydrospiro[indole-3,4′-piperidine]-5-carbonitrile] | 114 | 80.1
19 | C[C@]1(O)C[C@H](n2ncc3cc(OCCN4CCC5(CC4)C(=O)Nc4ccc(C#N)cc45)cnc32)C1 [Compound 438, 2-oxo-1′-[2-({1-[(trans)-3-hydroxy-3-methylcyclobutyl]-1H-pyrazolo[3,4-b]pyridin-5-yl}oxy)ethyl]-1,2-dihydrospiro[indole-3,4′-piperidine]-5-carbonitrile] | 242 | 204
20 | CS(=O)(=O)N1CCC(c2ccc(OCCN3CCC4(CC3)C(=O)Nc3ccc(Cl)cc34)cc2)CC1 [Compound 444, 5-chloro-1′-{2-[4-(1-methanesulfonylpiperidin-4-yl)phenoxy]ethyl}-1,2-dihydrospiro[indole-3,4′-piperidin]-2-one] | 72.3 | 22.4
21 | CC(C)(O)CN1C(=O)CCc2cc(OCCN3CCC4(CC3)C(=O)Nc3ccc(Cl)cc34)cnc21 [Compound 452, 5-chloro-1′-(2-{[8-(2-hydroxy-2-methylpropyl)-7-oxo-5,6,7,8-tetrahydro-1,8-naphthyridin-3-yl]oxy}ethyl)-1,2-dihydrospiro[indole-3,4′-piperidin]-2-one] | 84.4 | 28.2
22 | C[C@]1(O)C[C@@H](N2C(=O)NCc3cc(OCCN4CCC5(CC4)C(=O)Nc4ccc(C#N)cc45)cc(C(F)(F)F)c32)C1 [Compound 457, 2-oxo-1′-[2-({2-oxo-1-[(cis)-3-hydroxy-3-methylcyclobutyl]-8-(trifluoromethyl)-1,2,3,4-tetrahydroquinazolin-6-yl}oxy)ethyl]-1,2-dihydrospiro[indole-3,4′-piperidine]-5-carbonitrile] | > 3300 | 278

Source: US12344610B2, “APOL1 inhibitors and methods of use” (Maze Therapeutics, Inc., priority 2022, dated 2025)
